The species entered for data set [1] is Mus musculus. The data set can be described thus: Hepatoprotective activity in CCl4-induced toxicity in liver injured mouse assessed as increase in inhibition of liver damage at 50 uM relative to control. Format: functional. More on the design: scale not given: the % may be the effect or the level left.
Data set [2] is described as follows: Hepatotoxicity in DMF-induced ICR mouse model assessed as change in CAT level, po measured after 7 days. Type of data set: toxicity, organism-based. Particulars: in vivo, 168 h, time 7 day.
A short description of data set [3]: Hepatotoxicity in CCl4-induced ICR mouse model assessed as change in GSH-PX level, po measured after 7 days. Type of data set: toxicity, organism-based. Particulars: in vivo, 168 h, time 7 day.
The nature of data set [4]: Hepatotoxicity in DMF-induced ICR mouse model assessed as change in SOD level, po measured after 7 days. Type of data set: toxicity, organism-based. Particulars: in vivo, 168 h, time 7 day.
Data set [5] can be described thus: Hepatotoxicity in CCl4-induced ICR mouse model assessed as change in CAT level, po measured after 7 days. Format: toxicity, organism-based. Particulars: in vivo, 168 h, time 7 day.
The nature of data set [6]: Hepatotoxicity in DMF-induced ICR mouse model assessed as change in GSH-PX level, po measured after 7 days. Format: toxicity, organism-based. Particulars: in vivo, 168 h, time 7 day.
The nature of data set [7]: Hepatotoxicity in CCl4-induced ICR mouse model assessed as change in SOD level, po measured after 7 days. Format: toxicity, organism-based. Particulars: in vivo, 168 h, time 7 day.
The subject of data set [8] is Huh-7. In words: Hepatoprotective activity in human Huh-7 cells assessed as reduction in AST level. More on the design: scale not given: the % may be the effect or the level left. Type of data set: functional.
Data set [9] deals with Huh-7. The data set can be described thus: Protection against CCl4-induced cell damage in human Huh-7 cells assessed as reduction in ALT level at […] (reference value: 40.2 U/ml). Format: functional. More on the design: dose or concentration left out as unconfirmed.
The subject of data set [10] is HepG2. In words: Hepatoprotective activity against H2O2-induced cell death in human HepG2 cells assessed as reduction in AST level at 18.65 uM preincubated for 1 hr followed by H2O2-stimulation and measured after 24 hrs. Type of data set: functional.
Data set [11] relates to HepG2. The data set can be described thus: Hepatoprotective activity against H2O2-induced cell death in human HepG2 cells assessed as reduction in ALT level at 74.60 uM preincubated for 1 hr followed by H2O2-stimulation and measured after 24 hrs. Type of data set: functional. Particulars: dose 74.6 µM.
Data set [12] deals with HepG2. In words: Hepatoprotective activity against H2O2-induced cell death in human HepG2 cells assessed as reduction in AST level at 74.60 uM preincubated for 1 hr followed by H2O2-stimulation and measured after 24 hrs. Type of data set: functional. Particulars: dose 74.6 µM.
For data set [13], the species on record is Mus musculus. The data set can be described thus: Protection against D-GaIN/TNFalpha induced cell death in mouse liver parenchymal cells assessed as reduction in GPT level measured after 2 hrs. Format: functional, cell-based.
Data set [14] has as its system Hepatocyte. In words: Hepatoprotective activity against CCL4-induced rat hepatocyte toxicity assessed as decrease in IL-1beta level at 0.1 mg/mL relative to control. Format: functional. More on the design: scale not given: the % may be the effect or the level left.
Data set [15] deals with HepG2. The data set can be described thus: Cytoprotective activity against t-BHP induced cell death in human HepG2 cells assessed as cell survival rate at 5 uM relative to control. Format: functional.
Data set [16] deals with HepG2. In words: Hepatoprotective activity against H2O2-induced human HepG2 cells assessed as increase in ALT level. Format: functional.
Data set [17] deals with HepG2. The data set can be described thus: Hepatoprotective activity against H2O2-induced human HepG2 cells assessed as increase in AST level at 186.00 uM. Type of data set: functional.

By IC50 is commonly meant the point on the concentration scale where inhibition reaches its midpoint.

As for `C[C@H]1[C@H](C)CC[C@]2(C(=O)O)CC[C@]3(C)C(=CC[C@@H]4[C@@]5(C)CC[C@H](O)[C@@](C)(CO)[C@@H]5CC[C@]43C)[C@H]12`, in data set [1], the Activity is recorded as 58.3%.

Regarding `C[C@@H]1O[C@@H](O[C@H]2[C@H](OC(=O)[C@]34CCC(C)(C)C[C@H]3C3=CC[C@@H]5[C@@]6(C(=O)O)CC[C@H](O)[C@@](C)(C(=O)O)[C@@H]6CC[C@@]5(C)[C@]3(C)CC4)O[C@H](C)[C@H](O)[C@@H]2O)[C@H](O)[C@H](O)[C@H]1O[C@@H]1O[C@H](CO)[C@@H](O[C@@H]2OC[C@@H](O)[C@H](O)[C@H]2O[C@@H]2OC[C@H](O)[C@H](O)[C@H]2O)[C@H](O)[C@H]1O`, the Activity is given as 84.68 U/mg in [2]; 69.12 U/mg in [3]; 198.16 U/mg in data set [4]; 87.1 U/mg in data set [5]; 59.91 U/mg in data set [6]; 221.03 U/mg in [7].

Take `C[C@@H]1CC[C@]2(C(=O)O)CC[C@]3(C)C(=CC[C@@H]4[C@@]5(C)C[C@@H](O)[C@@H](O)C(C)(C)[C@@H]5CC[C@]43C)[C@@H]2[C@]1(C)O` [EUSCAPHIC ACID]: the Activity in data set [8] was determined as 48.8%.

As for `C[C@@H]1CC[C@]2(C(=O)O[C@@H]3O[C@H](CO)[C@@H](O)[C@H](O)[C@H]3O)CC[C@]3(C)C(=CC[C@@H]4[C@@]5(C)C[C@H](O)[C@H](O)C(C)(C)[C@@H]5CC[C@]43C)[C@@H]2[C@]1(C)O`, the Activity in data set [9] came out at 15.4 U/ml.

As for `C=C(C)[C@@H]1C[C@H](O)C2=C(C(=O)C[C@]3(C)[C@@H]([C@H](C)CCC(=O)OC)CC[C@@]23C)[C@@]1(C)CCC(=O)O`, the Activity came out at 19.56 U/L in data set [10], 7.22 U/L in data set [11] and 10.53 U/L in data set [12].

As to `CC(=O)OC[C@H]1O[C@@H](O[C@H]2C[C@]3(C)[C@H](C[C@@H](O)[C@@H]4[C@@H]([C@]5(C)CC[C@@H](C(C)(C)O)O5)CC[C@]43C)[C@@]3(C)CC[C@H](O)C(C)(C)[C@H]23)[C@H](O[C@@H]2O[C@@H](C)[C@H](O)[C@@H](O)[C@H]2O)[C@@H](O)[C@@H]1O`, the IC50 in data set [13] came to 47 µM.

As to `C[C@H]1O[C@@H](O[C@H]2CC[C@@]3(C)[C@@H](CC[C@]4(C)[C@@H]3C=C[C@]35OC[C@@]6(CCC(C)(C)C[C@H]63)[C@@H](O)C[C@]54C)[C@]2(C)CO)[C@H](O[C@@H]2O[C@H](CO)[C@@H](O)[C@H](O)[C@H]2O)[C@@H](O[C@@H]2O[C@H](CO)[C@@H](O)[C@H](O)[C@H]2O)[C@H]1O` [BUDDLEJASAPONIN IV], the Activity in [14] is on record as 74.96%.

Consider `CC(C(=O)O)[C@H]1CC[C@@]2(C)[C@@H]3C(=O)C=C4[C@@H](CC[C@@H](O)C4(C)C)[C@]3(C)CC[C@]12C` (some centres not stated), for which, in data set [15], the Activity was 55.2%.

On to `C/C(=C\CC[C@@H](C)[C@H]1CC[C@@]2(C)C3=C(CC[C@]12C)[C@@]1(C)CC[C@H](O)C(C)(C)[C@@H]1CC3=O)C(=O)O`, for which the Activity in [16] came out at 20.95 U/L; in [17] it was 24.27 U/L.

Source of the values: ChEMBL document CHEMBL5260832, “Hepatoprotective natural triterpenoids” (Eur J Med Chem, 2018).
